The test system of data set [1] is washed rat platelets. As to the kind of experiment: ADP (10 μM)-induced aggregation of washed rat platelets. The class given is cell-based.
Data set [2] relates to Akt Ser473 phosphorylation. As to the kind of experiment: Immunoblotting of phospho-Akt (Ser473) in ADP-stimulated washed platelets. The class given is cell-based, rat. Particulars: Figure 5B: ADP 10 μM, LY294002 5 μM alone, single replicates. The protocol: (§1) For in vitro platelet aggregation, aliquots of washed platelets were preincubated with vehicle or various concentrations of naringenin for 5 min and stimulated with ADP (10 μmol/L) under stirring at 37°C for 5 min. For ex vivo platelet aggregation, PRP was incubated at 37°C for 5 min and stimulated with ADP (5 μmol/L) under stirring at 37 °C. The platelet aggregation was terminated by adding ethylenediaminetetraacetic acid (EDTA; 10 mM). Total protein was prepared using RIPA lysis buffer and protein content was determined by bicinchoninic acid (BCA) protein assay kit. Equal amounts of platelet proteins (30 μg) were separated on 10% SDS polyacrylamide gel electrophoresis (SDS-PAGE) and then transferred to poly vinylidene difluoride (PVDF) membranes and subjected to western blot. Blots were blocked with TBS-Tween 20 containing 5% BSA and probed with primary antibodies diluted in blocking solution at 4°C overnight followed by incubation with the corresponding HRP secondary antibodies. The protein bands were visualized using enhanced chemiluminescence (ECL).
FIGURE 4 Naringenin inhibits PI3K-mediated signaling in ADP-induced platelets. Washed rat platelets were preincubated without or with naringenin at 37°C for 5 min, and then stimulated with ADP (10 μmol/L) under stirring for 5 min. Platelet proteins were then extracted and analyzed by immunoblotting using PI3Kp110β antibody (A) and phospho-specific antibodies such as Akt^Ser473 (B), Akt^Thr308 (C), ERK1/2^Thr202/Tyr204 (D) and GSK3β^Ser9 (E). Total level of GAPDH was measured on each sample as a loading control. The blots shown are representative of three separate experiments. The relative protein expression levels were quantified by ImageJ 1.47v software. The level of relative protein expression obtained with vehicle control (0 μM) was taken as 1. R represents the level of relative protein expression in resting platelets. Data are expressed as means ± SD (n = 3). *p < 0.05, **p < 0.01, ***p < 0.001 compared with the vehicle control group.
FIGURE 5 Effects of naringenin combined with PI3K pan inhibitor LY294002 on platelet aggregation and Akt phosphorylation. Washed rat platelets were preincubated with naringenin (200 μmol/L) alone, the PI3K pan inhibitor LY294002 (5 μmol/L) alone or both for 5 min prior to ADP (10 μmol/L) activation. After stimulation with ADP, platelet aggregation was quantified and expressed as a percentage (A). Data are expressed as means ± SD (n = 6). ***p < 0.001 compared with the ADP-treated group, ^### p < 0.001 compared with naringenin alone or LY294002 alone. Platelet proteins were then extracted and specific antibodies were used to measure the level of total and phosphorylated Akt (B). The blots shown are representative of three separate experiments. The relative protein expression levels were quantified by ImageJ 1.47v software. The level of phosphorylation obtained in the ADP-treated group was taken as 1. Data are expressed as means ± SD (n = 3). ***p < 0.001 compared with the ADP-treated group, ^### p < 0.001 compared with naringenin alone or LY294002 alone.
On the technique in general: Immunoblotting shows a protein as a band on a membrane.

Data set [3] has as its system VASP Ser239 phosphorylation. The experiment in a line: Immunoblotting of phospho-VASP (Ser239) in ADP-stimulated washed platelets, with or without PKA, PKG, PKC inhibitors. As to conditions: inhibitor 30 μmol/L before treatment with naringenin, ADP 10 μmol/L. In kind it is cell-based, rat. The protocol:
as §1
VASP is a substrate for cAMP- and cGMP- dependent protein kinases, which mediate cAMP- and cGMP-dependent inhibitory signaling in platelets, respectively. Increased cAMP levels followed by the activation of cAMP-dependent protein kinase A (PKA) phosphorylates VASP at position Ser157, whereas the elevation of cGMP leads to VASP phosphorylation at position Ser239 by cGMP-dependent protein kinase G (PKG) ([Aszódi et al., 1999]; [Li et al., 2003a]). To further examine whether naringenin modulates cAMP- or cGMP-mediated inhibitory signaling, the phosphorylation of VASP (Ser157 and Ser239) in washed platelets on stimulation with ADP were measured in the absence or presence of naringenin (100, 200, 400, and 800 μM). […] To further confirm the antiplatelet effects of naringenin through PKA-dependent signaling, the effects of naringenin on platelet aggregation were measured in the presence of PKG inhibitor (Rp-8-Br-PET-cGMPS) and PKA inhibitor (H89).
FIGURE 7 Naringenin promotes VASP phosphorylation. The effects of naringenin on phosphorylation of VASP (at positions Ser 157 and Ser239) were measured in washed platelets upon stimulation with ADP (10 μmol/L) by western blotting (A). The blots shown are representative of three separate experiments. The phosphorylation levels were quantified by ImageJ 1.47v software. The level of phosphorylation obtained with vehicle control (0 μM) was taken as 1 (B,C). R represents the phosphorylation level in resting platelets. Data are expressed as means ± SD (n = 3). *p < 0.05, ***p < 0.001 compared with the vehicle control group. VASP phosphorylation at Ser239 was also analyzed in washed platelets incubated with 5 μmol/L PKA (H89), 30 μmol/L PKG (Rp-8-Br-PET-cGMPS), or 5 μmol/L PKC (GF109203X) inhibitors before treatment with naringenin (D). Washed platelets were incubated with vehicle or naringenin (200 μmol/L) at 37°C in the presence or absence of 5 μmol/L PKA (H89) or 30 μmol/L PKG (Rp-8-Br-PET-cGMPS) inhibitors. After treatment, platelets were stimulated with ADP (10 μmol/L) to trigger aggregation (E). Data are expressed as means ± SD (n = 6). ***p < 0.001 compared with the ADP-treated group, ^# p < 0.05, ^### p < 0.001 compared with naringenin alone or H89 alone.

Data set [4] relates to washed rat platelets. As to the kind of experiment: ADP (10 μM)-induced aggregation of washed rat platelets. The class given is cell-based. Particulars: inhibitor 30 μmol/L preincubation, naringenin 200 μmol/L, ADP 10 μmol/L. The protocol:
Platelet-rich plasma (PRP) was obtained, and after the addition of 100 ng/ml PGE1, platelets were pelleted at 900 × g for 10 min. […] Washed platelets were preincubated with vehicle (0.4% dimethyl sulfoxide) or various concentrations of naringenin in the presence of 2 mM CaCl2 for 5 min at 37°C, and then further stimulated by ADP (10 μM), thrombin (0.2 U/mL) or collagen (2 μg/ml). The maximum platelet aggregation rate was detected within 5 min with continuous stirring.
Platelet aggregation was induced by ADP using washed platelets and PRP. Washed platelets were preincubated with vehicle (containing 0.4% DMSO) or different doses (100, 200, 400, and 800 μM) of naringenin or naringin for 5 min before activation with ADP (10 μM) for 5 min.
FIGURE 1 Effects of naringenin and naringin on platelet aggregation. Chemical structure of naringin (A) and naringenin (B). The effects of naringin (C) or naringenin (D) on PRP were measured following stimulation with 10 μmol/L ADP. Rat washed platelet aggregation performed with or without different concentrations of naringin (E) or naringenin (F) was recorded after stimulation with 10 μmol/L ADP. Similarly, Washed platelet aggregation performed with vehicle or various concentrations of naringenin was recorded after stimulation with 0.2 U/mL thrombin (G) or 2 μg/ml collagen (H). WP represents washed platelets. Data are expressed as means ± SD (n = 6), the level of aggregation obtained at 5 min with vehicle-treated samples (0 μM) was taken as 100%. *p < 0.05, **p < 0.01, ***p < 0.001 compared with the vehicle control group.

Data set [5] has as its system tail bleeding. As to conditions: mouse, in vivo, po, 11.375 mg/kg. The protocol: Sixty minutes after the last administration, mice were anaesthetized with 1% pentobarbital sodium salt and placed on a 37°C heating pad. The tail was transected at a site 3 mm proximal to the tip and immediately immersed into saline kept at 37°C. The time to bleeding cessation (defined as no bleeding for 30 s) was measured. When the bleeding time lasted longer than 10 min, the bleeding was stopped, and the bleeding time was recorded as 10 min.

Data set [6] has as its system PI3Kp110β. The experiment in a line: Ex vivo immunoblotting of PI3Kp110β in ADP-stimulated PRP of treated rats. The arrangement: species or system rat. As to conditions: clopidogrel group, ex vivo; Figure 8B. The protocol:
(§2) Male SD rats were randomly divided into 5 groups with 6 rats in each group. […] Sixty minutes after the last sample treatment, blood was drawn from the abdominal aorta of rats into the siliconized vacutainers containing 1:9 (v/v) 3.8% sodium citrate. The collected blood was centrifuged at 100 × g for 10 min at room temperature to obtain PRP. […] The platelet counts of PRP were adjusted to 4×10^8 cells/mL using PPP. PRP was incubated for 5 min at 37°C and then stimulated by ADP (5 μM). The maximum platelet aggregation rate was determined as mentioned above.
as §1
(§3) Blood was collected and PRP was obtained after the last treatment. Platelet aggregation was induced by ADP (5 μmol/L) (A). Data are expressed as means ± SD (n = 6). After ADP stimulation, platelet proteins were then extracted and analyzed by immunoblotting using PI3Kp110β antibody (B) and phospho-specific antibodies such as Akt^Ser473 (C), Akt^Thr308 (D) and ERK1/2^Thr202/Tyr204 (E). Total level of GAPDH was measured on each sample as a loading control. The blots shown are representative of three separate experiments. The relative protein expression levels were quantified by ImageJ 1.47v software. The level of relative protein expression obtained with vehicle control was taken as 1. R represents the level of relative protein expression in resting platelets. Data are expressed as means ± SD (n = 3). *p < 0.05, **p < 0.01, ***p < 0.001 compared with the vehicle control group (Con).
(§4) To further investigate the antiplatelet mechanisms of naringenin ex vivo, several signaling molecules such as PI3Kp110β, Akt and ERK were detected. After oral administration of naringenin (200, 400, and 800 mg/kg) to rats for 7 days, rat PRP was prepared and stimulated by ADP (5 μmol/L), and platelets were lysed to determine protein phosphorylation levels using western blot.

Data set [7] relates to Akt Thr308 phosphorylation. The experiment in a line: Ex vivo immunoblotting of phospho-Akt (Thr308) in ADP-stimulated PRP of treated rats. The arrangement: species or system rat. As to conditions: clopidogrel group, ex vivo; Figure 8D. The protocol: as §2, §1, §3, §4
The subject of data set [8] is Akt Ser473 phosphorylation. The experiment in a line: Ex vivo immunoblotting of phospho-Akt (Ser473) in ADP-stimulated PRP of treated rats. Further details: species or system rat. As to conditions: clopidogrel group, ex vivo; Figure 8C. The protocol:
as §2, §1, §3, §4

Data set [9] has as its system carotid arterial thrombus. As to the kind of experiment: FeCl3-induced carotid arterial thrombus model in rats. The class given is in vivo, rat. As to conditions: oral 7.875 mg/kg for 7 days. The protocol: To determine the effects of naringenin on thrombogenesis, a FeCl3-induced carotid arterial thrombus model was performed as reported previously with some modifications ([Eckly et al., 2011]). […] The rats were anaesthetized using 1% pentobarbital sodium salt and fixed supinely after the last administration. The left carotid artery was exposed and thrombosis was induced by applying a Whatman filter paper (5 mm × 1 mm) saturated with 10% (w/v) FeCl3 on the top of the left carotid artery for 5 min. […] Time to occlusion of the carotid artery was defined as a blood flow of 0 ml/min for 3 min. […] At the end of the experiment, the left carotid artery was dissected. A haematoxylin and eosin stain was performed on the artery.

Where “and” joins values, the source holds several entries; their conditions need not be identical. Equal values may be shown once. Where a name gives a salt, the structure may show the parent alone.

Regarding `O=c1cc(N2CCOCC2)oc2c(-c3ccccc3)cccc12` [LY294002, reference compound], in data set [1] (Figure 5A: washed platelets, ADP 10 μM, LY294002 5 μM alone, single replicates), the “Aggregation (%)” value was 47.5% and 35.4% and 37.3% and 29.8% and 45.4% and 28.0%. Also, the “p-Akt Ser473 / t-Akt” value in data set [2] (raw data) is 0.3729 and 0.2624 and 0.3579. Besides, the “p-Akt Ser473 / t-Akt (Fold to ADP only)” value in [2] was 0.4284 Fold to ADP only and 0.3015 Fold to ADP only and 0.4113 Fold to ADP only.

For `O=c1c2nc(Br)n([C@@H]3O[C@@H]4CO[P@@](O)(=S)O[C@H]4[C@H]3O)c2nc2[nH]c(-c3ccccc3)cn12` [Rp-8-Br-PET-cGMPS, Rp-8-Bromo-β-phenyl-1, N2-ethenoguanosine 3´, 5´-cyclic mono-phosphorothioate sodium salt], the “Aggregation (%)” value in data set [1] (Rp-8-Br-PET-cGMPS (30 μM)+ADP (10 μM), Figure 7E) was 67.3% and 69.8% and 64.5% and 66.3% and 65.0% and 70.4%. In addition, the “naringenin-induced phosphorylation of VASP at Ser239 after kinase inhibitor” value in data set [3] is “only small changes”. In addition, the “platelet aggregation when incubated with naringenin after kinase inhibitor” value in data set [4] is on record as “did not affect the final extent of platelet aggregation”.

For `COC(=O)[C@H](c1ccccc1Cl)N1CCc2sccc2C1` [Clopidogrel, clopidogrel, reference compound], the “effect on tail bleeding time” value in data set [5] was “markedly extended”. In data set [6], the “PI3Kp110β / GAPDH (Fold to Control)” value is 0.8304 and 0.8095 and 1.1247; the “PI3Kp110β / GAPDH (raw data)” value was 0.4069 and 0.3966 and 0.5511. Moreover, in data set [7], the “p-Akt Thr308 / t-Akt (Fold to Control)” value is 0.3303 and 0.3457 and 0.2827; the “p-Akt Thr308 / t-Akt (raw data)” value is 0.2780 and 0.2909 and 0.2379. Moreover, in data set [8], the “p-Akt Ser473 / t-Akt (Fold to Control)” value was 0.1574 and 0.1140 and 0.1683; the “p-Akt Ser473 / t-Akt (raw data)” value was 0.1750 and 0.1267 and 0.1870. For the same compound, the “vessel occlusion time of rats” value in data set [9] is given as “considerably delayed”. In addition, the “Occlusion time” value in data set [9] (10% FeCl3, single animals, no occlusion within 20 min recorded as 20 min, 7.875 mg/kg) is 18.3 min and 20.0 min.

The values above are taken from paper PMC8406801, “Naringenin Inhibits Platelet Activation and Arterial Thrombosis Through Inhibition of Phosphoinositide 3-Kinase and Cyclic Nucleotide Signaling” (Frontiers in Pharmacology, 2021).
